Measurements published in patent US8372872B2, “Methods for concomitant treatment of theophylline and febuxostat” (Takeda Pharmaceuticals U.S.A., Inc., priority 2010, dated 2013).

Experiments:
clinical = conditions: both, human, in vivo, po
[1] = adults; cited from earlier work
[2] = patients co-administered allopurinol and theophylline; cited from earlier work
[3] = febuxostat vs placebo regimen, in words

## Cc1nc(-c2ccc(OCC(C)C)c(C#N)c2)sc1C(=O)O [Febuxostat]
In words
  maximum observed theophylline concentration (Cmax) and exposure to theophylline (AUC), febuxostat vs placebo: comparable

## Cn1c(=O)c2[nH]cnc2n(C)c1=O [Theophylline, 1,3-dimethyl-7H-purine-2,6-dione]
both, human, in vivo
  point estimates for theophylline Cmax, AUC(0-tlqc) and AUC(0-inf): ~100%
[3]
  estimated mean T1/2, CL/F and Vz/F of theophylline, compared between regimens: generally similar
  mean AUC(0-inf) of theophylline, compared between regimens: comparable
clinical
  Tmax: 7 to 9 h
  Vd/F: 58.2 L
  half-life: 9.69 h
[1]
  biological half-life: about 6 hours

## Oc1ncnc2[nH]ncc12 [allopurinol]
[2]
  decrease of theophylline clearance: 21%
  increase of theophylline AUC: up to 27%
  increase of theophylline half-life: approximately 25%
